Source: patent US6914045B2, “Glycopeptide antibiotics” (Wyeth Holdings Corporation, priority 2001, dated 2005)
Values after ≈ are worked out from the molar mass of the structure shown.

Columns and labels:
[1] = system: Streptococcus pneumoniae (GC 1894); assay: acute lethal infection in mice; assay type: in vivo; conditions: female CD-1 mice, intraperitoneal challenge, intravenous 30 min. after infection, 7 day survival
Summary of the method: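 Survival at 7 days, pooled from three independent tests, yields ED50 values. Treatment is intravenous, 30 min after ip infection of female CD-1 mice, using an inoculum lethal to untreated controls within 24-48 hr.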

[2] = clinical pathology (serum clinical chemistry) in mice; assay type: in vivo; conditions: CD-1 mice, 20 mg/kg intravenously daily for 9 days, sera day 10
Procedure: 20-day-old CD-1 mice were divided into a vehicle control group (5 mice) and a treatment group (5 mice). Samples of glycopeptide antibiotics were administered at 20 mg/kg intravenously daily for 9 days.

[3] = anatomic pathology (histopathology of heart and kidney) in mice; assay type: in vivo; conditions: CD-1 mice, 20 mg/kg intravenously daily for 9 days, necropsy day 10, microscopic histopathology
Procedure: Samples of tissues from necropsied mice were formalin-fixed, paraffin-embedded, sectioned, stained with hematoxylin and eosin, and examined microscopically. Histopathologic findings were recorded. These findings were subjectively graded on a scale corresponding to slight, mild, moderate, marked and severe as compared to untreated controls.

Enterococcus sp. = assay: in vitro antibacterial evaluation, MIC by broth dilution; assay type: cell-based; conditions: broth dilution, 18 hours at 35° C.; for MIC Enterococcus faecalis (ATCC 29212): strain ATCC 29212; for MIC Enterococcus faecalis (GC 2242): strain GC 2242; for MIC Enterococcus faecium (GC 2243): strain GC 2243; for MIC Enterococcus faecalis (GC 2691): strain GC 2691; for MIC Enterococcus faecalis (GC 3059): strain GC 3059; for MIC Enterococcus faecalis (GC 4552): strain GC 4552; for MIC Enterococcus faecalis (GC 4553): strain GC 4553; for MIC Enterococcus faecalis (GC 4554): strain GC 4554; for MIC Enterococcus faecium (GC 4556): strain GC 4556; for MIC Enterococcus faecium (GC 4557): strain GC 4557; for MIC Enterococcus avium (GC 4558): strain GC 4558; for MIC Enterococcus faecalis (GC 6189): strain GC 6189
Summary of the method: (§1)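 MIC, the lowest antibiotic concentration preventing growth, was read across 64-0.06 μg/mL with 5×10^5 CFU/mL inoculum. Method followed NCCLS M7-A2 broth dilution using Mueller-Hinton II; Gram-positive strains covered recent methicillin-, penicillin- and/or vancomycin-resistant clinical isolates.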

Escherichia coli = assay: as above; assay type: cell-based; conditions: 18 hours at 35° C.; for MIC Escherichia coli (GC 4560): strain GC 4560
Summary of the method: as §1

Staphylococcus sp. = assay: as above; assay type: cell-based; conditions: broth dilution, 18 hours at 35° C.
Summary of the method: as §1

Streptococcus sp. = assay: as above; assay type: cell-based; conditions: broth dilution, 18 hours at 35° C.; for MIC Streptococcus pneumoniae (ATCC 6301): strain ATCC 6301; for MIC Streptococcus pneumoniae (GC 1894): strain GC 1894; for MIC Streptococcus pneumoniae (GC 4565): strain GC 4565
Summary of the method: as §1

Compound: CC(c1ccccc1)C1NC(=O)CNC(=O)C(CO)NC(=O)C(C(O)C2CNC(=N)N2C2OC(CO)C(O)C(O)C2O)NC(=O)C(C(O)C2CNC(=N)N2)NC(=O)C(Cc2ccc(OC3OC(CO)C(OC4OC5COC6(OC5C(O)C4O)C4CC5CC(C4)CC6C5)C(O)C3O)cc2)NC1=O (stereo not drawn) [Example 105, Cyclo[glycyl-β-methylphenylalanyl-O-[4-O-[4,6-O-(2-adamantylidene)hexopyranosyl]hexopyranosyl]tyrosyl-3-(2-iminoimidazolidin-4-yl)seryl-3-(3-hexopyranosyl-2-iminoimidazolidin-4-yl)serylseryl]]
- median effective dose (ED50), Streptococcus pneumoniae (GC 1894) [1]: 0.04 mg/kg
- Clinical Chemistry (Day 10) % of Control, ALT [2]: +480%
- Clinical Chemistry (Day 10) % of Control, BUN [2]: +35%
- Anatomical Pathology (Day 10), Heart [3]: +++
- Anatomical Pathology (Day 10), Kidney [3]: +++
- MIC Enterococcus faecalis (ATCC 29212) (Enterococcus sp.): 1 to 2 µg/mL
- MIC Enterococcus faecalis (GC 2242) (Enterococcus sp.): 0.5 to 2 µg/mL
- MIC Enterococcus faecium (GC 2243) (Enterococcus sp.): 1 to 2 µg/mL
- MIC Enterococcus faecalis (GC 2691) (Enterococcus sp.): 1 to 2 µg/mL
- MIC Enterococcus faecalis (GC 3059) (Enterococcus sp.): 1 to 2 µg/mL
- MIC Enterococcus faecalis (GC 4552) (Enterococcus sp.): 1 to 2 µg/mL
- MIC Enterococcus faecalis (GC 4553) (Enterococcus sp.): 1 to 2 µg/mL
- MIC Enterococcus faecalis (GC 4554) (Enterococcus sp.): 1 to 2 µg/mL
- MIC Enterococcus faecium (GC 4556) (Enterococcus sp.): 0.5 to 2 µg/mL
- MIC Enterococcus faecium (GC 4557) (Enterococcus sp.): 1 to 2 µg/mL
- MIC Enterococcus avium (GC 4558) (Enterococcus sp.): 1 to 2 µg/mL
- MIC Enterococcus faecalis (GC 6189) (Enterococcus sp.): 1 to 2 µg/mL
- MIC Escherichia coli (GC 4559) (Escherichia coli; strain GC 4559): 32 µg/mL (≈ 22.4 µM)
- MIC Escherichia coli (GC 4560) (Escherichia coli): 0.5 to 2 µg/mL
- MIC Coagulase Negative Staphylococcus (GC 4547) (Staphylococcus sp.): 0.5 to 1 µg/mL
- MIC Coagulase Negative Staphylococcus (GC 4548) (Staphylococcus sp.): <0.5 to 1 µg/mL
- MIC Coagulase Negative Staphylococcus (GC 4549) (Staphylococcus sp.): 0.5 to 1 µg/mL
- MIC Coagulase Negative Staphylococcus (GC 4551) (Staphylococcus sp.): <0.5 to 1 µg/mL
- MIC Coagulase Negative Staphylococcus (GC 6257) (Staphylococcus sp.): 0.5 to 1 µg/mL
- MIC Staphylococcus aureus (ATCC 29213) (Staphylococcus sp.): <0.5 to 1 µg/mL
- MIC Staphylococcus aureus (GC 1131) (Staphylococcus sp.): 0.25 to 1 µg/mL
- MIC Staphylococcus aureus (GC 3051) (Staphylococcus sp.): 0.5 to 1 µg/mL
- MIC Staphylococcus aureus (GC 3053) (Staphylococcus sp.): 1 to 2 µg/mL
- MIC Staphylococcus aureus (GC 4541) (Staphylococcus sp.): <0.5 to 1 µg/mL
- MIC Staphylococcus aureus (GC 4542) (Staphylococcus sp.): 0.5 to 1 µg/mL
- MIC Staphylococcus aureus (GC 4544) (Staphylococcus sp.): 0.25 to 2 µg/mL
- MIC Staphylococcus aureus (GC 4545) (Staphylococcus sp.): <0.5 to 1 µg/mL
- MIC Staphylococcus aureus-SMITH (GC 4543) (Staphylococcus sp.): 0.25 to 1 µg/mL
- MIC Staphylococcus haemolyticus (GC 4546) (Staphylococcus sp.): <0.5 to 1 µg/mL
- MIC Staphylococcus haemolyticus (GC 4546) (Staphylococcus sp.; strain GC 4546): <0.5 to 1 µg/mL
- MIC Coagulase Negative Staphylococcus (GC 4547) (Staphylococcus sp.; strain GC 4547): 0.5 to 1 µg/mL
- MIC Coagulase Negative Staphylococcus (GC 4548) (Staphylococcus sp.; strain GC 4548): <0.5 to 1 µg/mL
- MIC Coagulase Negative Staphylococcus (GC 4549) (Staphylococcus sp.; strain GC 4549): 0.5 to 1 µg/mL
- MIC Coagulase Negative Staphylococcus (GC 4551) (Staphylococcus sp.; strain GC 4551): <0.5 to 1 µg/mL
- MIC Coagulase Negative Staphylococcus (GC 6257) (Staphylococcus sp.; strain GC 6257): 0.5 to 1 µg/mL
- MIC Streptococcus pneumoniae (ATCC 6301) (Streptococcus sp.): <0.06 µg/mL
- MIC Streptococcus pneumoniae (GC 1894) (Streptococcus sp.): <0.06 µg/mL
- MIC Streptococcus pneumoniae (GC 4565) (Streptococcus sp.): <0.06 µg/mL

Compound: N=C1NCC(C(O)C2NC(=O)C(Cc3ccc(OC4OC(CO)C(OC5OC6COC7(OC6C(O)C5O)C5CC6CC(C5)CC7C6)C(O)C4O)cc3)NC(=O)C(CC3CCCCC3)NC(=O)CNC(=O)C(CO)NC(=O)C(C(O)C3CNC(=N)N3C3OC(CO)C(O)C(O)C3O)NC2=O)N1 (stereo not drawn) [Example 106, Cyclo[3-cyclohexylalanyl-O-[4-O-[4,6-O-(2-adamantylidene)hexopyranosyl]hexopyranosyl]-tyrosyl-3-(2-iminoimidazolidin-4-yl)seryl-3-(3-hexopyranosyl-2-iminoimidazolidin-4-yl)-serylserylglycyl]]
- median effective dose (ED50), Streptococcus pneumoniae (GC 1894) [1]: 0.07 mg/kg
- Anatomical Pathology (Day 10), Heart [3]: 0
- MIC Enterococcus faecalis (ATCC 29212) (Enterococcus sp.): 0.5 to 2 µg/mL
- MIC Enterococcus faecalis (GC 2242) (Enterococcus sp.): 0.5 to 2 µg/mL
- MIC Enterococcus faecium (GC 2243) (Enterococcus sp.): 0.5 to 2 µg/mL
- MIC Enterococcus faecalis (GC 2691) (Enterococcus sp.): 1 to 2 µg/mL
- MIC Enterococcus faecalis (GC 3059) (Enterococcus sp.): 1 to 2 µg/mL
- MIC Enterococcus faecalis (GC 4552) (Enterococcus sp.): 1 to 2 µg/mL
- MIC Enterococcus faecalis (GC 4553) (Enterococcus sp.): 1 to 2 µg/mL
- MIC Enterococcus faecalis (GC 4554) (Enterococcus sp.): 1 to 2 µg/mL
- MIC Enterococcus faecium (GC 4556) (Enterococcus sp.): 0.5 to 2 µg/mL
- MIC Enterococcus faecium (GC 4557) (Enterococcus sp.): 0.5 to 2 µg/mL
- MIC Enterococcus avium (GC 4558) (Enterococcus sp.): 1 to 2 µg/mL
- MIC Enterococcus faecalis (GC 6189) (Enterococcus sp.): 1 to 2 µg/mL
- MIC Escherichia coli (GC 4560) (Escherichia coli): 0.5 to 2 µg/mL
- MIC Coagulase Negative Staphylococcus (GC 4547) (Staphylococcus sp.): 0.5 to 2 µg/mL
- MIC Coagulase Negative Staphylococcus (GC 4548) (Staphylococcus sp.): 0.25 to 1 µg/mL
- MIC Coagulase Negative Staphylococcus (GC 4549) (Staphylococcus sp.): <0.12 to 1 µg/mL
- MIC Coagulase Negative Staphylococcus (GC 4551) (Staphylococcus sp.): 0.25 to 1 µg/mL
- MIC Coagulase Negative Staphylococcus (GC 6257) (Staphylococcus sp.): 0.25 µg/mL (≈ 0.176 µM)
- MIC Staphylococcus aureus (ATCC 29213) (Staphylococcus sp.): 0.5 to 2 µg/mL
- MIC Staphylococcus aureus (GC 1131) (Staphylococcus sp.): 0.5 to 2 µg/mL
- MIC Staphylococcus aureus (GC 3051) (Staphylococcus sp.): 0.5 to 2 µg/mL
- MIC Staphylococcus aureus (GC 3053) (Staphylococcus sp.): 0.5 to 2 µg/mL
- MIC Staphylococcus aureus (GC 4541) (Staphylococcus sp.): 0.5 to 2 µg/mL
- MIC Staphylococcus aureus (GC 4542) (Staphylococcus sp.): 0.25 to 1 µg/mL
- MIC Staphylococcus aureus (GC 4544) (Staphylococcus sp.): 0.25 to 2 µg/mL
- MIC Staphylococcus aureus (GC 4545) (Staphylococcus sp.): 0.5 to 2 µg/mL
- MIC Staphylococcus aureus-SMITH (GC 4543) (Staphylococcus sp.): 0.25 to 1 µg/mL
- MIC Staphylococcus haemolyticus (GC 4546) (Staphylococcus sp.): 0.5 to 1 µg/mL
- MIC Staphylococcus haemolyticus (GC 4546) (Staphylococcus sp.; strain GC 4546): 0.5 to 1 µg/mL
- MIC Coagulase Negative Staphylococcus (GC 4547) (Staphylococcus sp.; strain GC 4547): 0.5 to 2 µg/mL
- MIC Coagulase Negative Staphylococcus (GC 6257) (Staphylococcus sp.; strain GC 6257): 0.25 µg/mL (≈ 0.176 µM)
- MIC Streptococcus pneumoniae (ATCC 6301) (Streptococcus sp.): <0.03 µg/mL
- MIC Streptococcus pneumoniae (GC 1894) (Streptococcus sp.): <0.03 µg/mL
- MIC Streptococcus pyogenes (GC 4563) (Streptococcus sp.; strain GC 4563): <0.03 µg/mL
- MIC Streptococcus agalactiae (GC 4564) (Streptococcus sp.; strain GC 4564): <0.03 µg/mL
- MIC Streptococcus pneumoniae (GC 4565) (Streptococcus sp.): <0.03 µg/mL
